pIC50: −log10 of the molar value.
target: T1, Flt-1 VEGF-receptor tyrosine kinase (Homo sapiens, UniProt P17948); assay: Test for activity against Flt-1 VEGF-receptor tyrosine kinase; type: biochemical; settings: kinase domain of Flt-1, poly(Glu,Tyr) 4:1, 8 μM [33P]-ATP, 10 minutes at room temperature
T1 construct: 10 ng of the kinase domain of Flt-1
T1 sequence (P17948 827-1158 limits assumed): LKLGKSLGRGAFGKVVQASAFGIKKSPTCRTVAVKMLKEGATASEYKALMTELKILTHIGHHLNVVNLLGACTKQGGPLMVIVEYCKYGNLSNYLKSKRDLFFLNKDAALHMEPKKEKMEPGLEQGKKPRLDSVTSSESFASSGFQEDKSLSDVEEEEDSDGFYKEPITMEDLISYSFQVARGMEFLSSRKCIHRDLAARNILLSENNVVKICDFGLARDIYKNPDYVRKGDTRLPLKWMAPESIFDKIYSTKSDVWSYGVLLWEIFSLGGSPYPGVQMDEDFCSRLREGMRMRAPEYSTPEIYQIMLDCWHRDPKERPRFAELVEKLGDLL
Procedure: Test for activity against VEGF-receptor tyrosine kinase. The test is conducted using Flt-1 VEGF-receptor tyrosine kinase. […] The reaction is then terminated by the addition of 10 μl 0.25 M ethylenediaminetetraacetate (EDTA) pH 7. Using a multichannel dispenser (LAB SYSTEMS, USA), an aliquot of 20 μl is applied to a PVDF (=polyvinyl difluoride) Immobilon P membrane (Millipore, USA), through a Millipore microtiter filter manifold and connected to a vacuum. Following complete elimination of the liquid, the membrane is washed 4 times successively in a bath containing 0.5% phosphoric acid (H3PO4) and once with ethanol, incubated for 10 minutes each time while shaking, then mounted in a Hewlett Packard TopCount Manifold and the radioactivity measured after the addition of 10 μl Microscint® (β-scintillation counter liquid).
The test is conducted using Flt-1 VEGF-receptor tyrosine kinase, as described hereinabove.

Going from `O=C(Nc1ccc(Cl)c(C(F)(F)F)c1)c1ccccc1NCc1ccncc1` [Example 7, 2-[(4-Pyridyl)methyl]amino-N-[4-chloro-3-(trifluoromethyl)phenyl]benzamide] to `Cc1ccc(NC(=O)c2ccccc2NCc2ccncc2)cc1` [Example 5, 2-[(4-Pyridyl)methyl]amino-N-(4-methylphenyl)benzamide], the pIC50 rises from 6.25 to 6.59 (0.34 log units).

test system: not given; assay: not given; settings: not given

`NC(=O)c1cccc(NC(=O)c2ccccc2NCc2ccncc2)c1` [Example 32, 2-[(4-Pyridyl)methyl]amino-N-[3-(aminocarbonyl)phenyl]benzamide] and `NC(=O)Nc1cccc(NC(=O)c2ccccc2NCc2ccncc2)c1` [Example 19, 2-[(4-Pyridyl)methyl]amino-N-[3-[(aminocarbonyl)amino]phenyl]benzamide] cannot be ordered by melting point: 195 to 203 °C for the first, 200 to 202 °C for the second.

First: CC(C)(C)c1ccc(NC(=O)c2ccccc2NCc2ccncc2)cc1 [Example 27, 2-[(4-Pyridyl)methyl]amino-N-[4-(1,1-dimethylethyl)phenyl]benzamide]
Second: CC(C)(C)c1cccc(NC(=O)c2ccccc2NCc2ccncc2)c1 [Example 15, 2-[(4-Pyridyl)methyl]amino-N-[3-(1,1-dimethylethyl)phenyl]benzamide]
The melting point of the first is higher: 168 to 170 °C for the first, 144 to 147 °C for the second.

Compared with `O=C(Nc1ccc(Cl)cc1)c1cc(Cl)ccc1NCc1ccncc1` [Example 59, 5-chloro-2-[(4-pyridyl)methyl]amino-N-(4-chlorophenyl)benzamide], `O=C(Nc1ccc(Cl)cc1)c1ccc(Cl)cc1NCc1ccncc1` [Example 55, 4-chloro-2-[(4-pyridyl)methyl]amino-N-(4-chlorophenyl)benzamide] is lower in melting point: 206 to 207 °C for the first, 186 °C for the second.

First: O=C(Nc1cccc(C(F)(F)F)c1)c1ccccc1NCCc1cccnc1 [Example 42, 2-[2-(3-Pyridyl)ethyl]amino-N-[3-(trifluoromethyl)phenyl]benzamide]
Second: O=C(Nc1cccc(C(F)(F)F)c1)c1ccccc1NCc1cccnc1 [Example 34, 2-[(3-Pyridyl)methyl]amino-N-[3-(trifluoromethyl)phenyl]benzamide]
The melting point of the first is lower: 102 to 103 °C for the first, 140 to 142 °C for the second.

First: Cc1cccc(NC(=O)c2ccccc2NCc2ccncc2)c1 [Example 30, 2-[(4-Pyridyl)methyl]amino-N-(3-methylphenyl)benzamide]
Second: O=C(Nc1cccc(Br)c1)c1ccccc1NCc1ccncc1 [Example 29, 2-[(4-Pyridyl)methyl]amino-N-(3-bromophenyl)benzamide]
The melting point of the first is lower: 139 to 140 °C for the first, 156 to 159 °C for the second.

First: COc1cc(NC(=O)c2ccccc2NCc2ccncc2)cc2ccccc12 [Example 64, 2-[(4-pyridyl)methyl]amino-N-(4-methoxy-2-naphthyl)benzamide]
Second: O=C(Nc1cc2ccccc2cc1Br)c1ccccc1NCc1ccncc1 [Example 65, 2-[(4-pyridyl)methyl]amino-N-(3-bromo-2-naphthyl)benzamide]
The melting point of the first is higher: 152 to 154 °C for the first, 130 to 132 °C for the second.

First: Cc1cccc(NCc2ccncc2)c1C(=O)Nc1ccc(Cl)cc1 [Example 47, 6-methyl-2-[(4-pyridyl)methyl]amino-N-(4-chlorophenyl)benzamide]
Second: O=C(Nc1ccc(Cl)cc1)c1c(Cl)cccc1NCc1ccncc1 [Example 48, 6-chloro-2-[(4-pyridyl)methyl]amino-N-(4-chlorophenyl)benzamide]
The melting point of the first is higher: 190 °C for the first, 183 to 185 °C for the second.

First: N#Cc1cccc(NC(=O)c2ccccc2NCc2ccncc2)c1 [Example 16, 2-[(4-Pyridyl)methyl]amino-N-(3-cyanophenyl)benzamide]
Second: O=C(Nc1cccc(Cl)c1)c1ccccc1NCc1ccncc1 [Example 28, 2-[(4-Pyridyl)methyl]amino-N-(3-chlorophenyl)benzamide]
The melting point of the first is higher: 157 to 160 °C for the first, 131 to 133 °C for the second.

First: Cc1ccccc1NC(=O)c1ccccc1NCc1ccncc1 [Example 70, 2-[(4-pyridyl)methyl]amino-N-(2-methylphenyl)benzamide]
Second: O=C(Nc1ccccc1)c1ccccc1NCc1ccncc1 [Example 3, 2-[(4-Pyridyl)methyl]amino-N-phenylbenzamide]
The melting point of the first is lower: 143 °C for the first, 160 to 161 °C for the second.

Going from `CC(C)OC(=O)c1ccc(NC(=O)c2ccccc2NCc2ccncc2)cc1` [Example 66, 2-[(4-pyridyl)methyl]amino-N-[4-(isopropoxycarbonyl)phenyl]benzamide] to `CC(C)NC(=O)c1ccc(NC(=O)c2ccccc2NCc2ccncc2)cc1` [Example 68, 2-[(4-pyridyl)methyl]amino-N-[4-(isopropylcarbamoyl)phenyl]benzamide], the melting point rises from 70 °C to 79 °C.

First: CN(C)c1cccc(NC(=O)c2ccccc2NCc2ccncc2)c1 [Example 20, 2-[(4-Pyridyl)methyl]amino-N-[3-(dimethylamino)phenyl]benzamide]
Second: CC(=O)Nc1cccc(NC(=O)c2ccccc2NCc2ccncc2)c1 [Example 18, 2-[(4-Pyridyl)methyl]amino-N-(3-acetylaminophenyl)benzamide]
The melting point of the first is lower: 152 to 154 °C for the first, 157 to 158 °C for the second.

First: O=C(Nc1ccc(F)c(C(F)(F)F)c1)c1ccccc1NCc1ccncc1 [Example 9, 2-[(4-Pyridyl)methyl]amino-N-[4-fluoro-3-(trifluoromethyl)phenyl]benzamide]
Second: O=C(Nc1ccc(Cl)c(C(F)(F)F)c1)c1ccccc1NCc1ccncc1 [Example 7, 2-[(4-Pyridyl)methyl]amino-N-[4-chloro-3-(trifluoromethyl)phenyl]benzamide]
The melting point of the first is higher: 183 to 185 °C for the first, 162 to 172 °C for the second.

First: Cc1ccc(NCc2ccncc2)c(C(=O)Nc2ccc(Cl)cc2)c1 [Example 56, 5-methyl-2-[(4-pyridyl)methyl]amino-N-(4-chlorophenyl)benzamide]
Second: Cc1ccc(NC(=O)c2c(C)cccc2NCc2ccncc2)cc1 [Example 33, 2-[(4-Pyridyl)methyl]amino-N-(4-methylphenyl)-6-methylbenzamide]
The melting point of the first is lower: 127 °C for the first, 162 to 163 °C for the second.

`O=C(Nc1cccc(C(F)(F)F)c1)c1cc(F)c(F)cc1NCc1ccncc1` [Example 23, 4,5-Difluoro-2-[(4-pyridyl)methyl]amino-N-[3-(trifluoromethyl)phenyl]benzamide] and `COc1ccc(NCc2ccncc2)c(C(=O)Nc2cccc(C(F)(F)F)c2)c1` [Example 21, 5-Methoxy-2-[(4-pyridyl)methyl]amino-N-[3-(trifluoromethyl)phenyl]benzamide] fall in the same range of melting point: 175 to 178 °C for the first, 175 to 178 °C for the second.

First: Cc1ccc(NC(=O)c2ccccc2NCc2ccncc2)cc1Cl [Example 69, 2-[(4-pyridyl)methyl]amino-N-(3-chloro-4-methylphenyl)benzamide]
Second: O=C(Nc1ccc2cccc(O)c2c1)c1ccccc1NCc1ccncc1 [Example 54, 2-[(4-pyridyl)methyl]amino-N-(8-hydroxy-2-naphthyl)benzamide]
The melting point of the first is lower: 143 °C for the first, 235 °C for the second.

First: O=C(Nc1cccc(C(F)(F)F)c1)c1ccccc1NCc1ccnc2ccccc12 [Example 35, 2-[(4-Quinolinyl)methyl]amino-N-[3-(trifluoromethyl)phenyl]benzamide]
Second: O=C(Nc1cccc(C(F)(F)F)c1)c1ccccc1NCc1cccc2ncccc12 [Example 36, 2-[(5-Quinolinyl)methyl]amino-N-[3-(trifluoromethyl)phenyl]benzamide]
The melting point of the first is higher: 191 to 193 °C for the first, 176 to 178 °C for the second.

Compared with `O=C(Nc1cc(Cl)cc(C(F)(F)F)c1)c1ccccc1NCc1ccncc1` [Example 8, 2-[(4-Pyridyl)methyl]amino-N-[3-chloro-5-(trifluoromethyl)phenyl]benzamide], `O=C(Nc1cc(F)cc(C(F)(F)F)c1)c1ccccc1NCc1ccncc1` [Example 10, 2-[(4-Pyridyl)methyl]amino-N-[3-fluoro-5-(trifluoromethyl)phenyl]benzamide] is higher in melting point: 190 to 194 °C for the first, 196 to 197 °C for the second.

First: COc1cc(NC(=O)c2ccccc2NCc2ccncc2)cc(C(F)(F)F)c1 [Example 13, 2-[(4-Pyridyl)methyl]amino-N-[3-methoxy-5-(trifluoromethyl)phenyl]benzamide]
Second: CN(C(=O)c1ccccc1NCc1ccncc1)c1cccc(C(F)(F)F)c1 [Example 24, 2-[(4-Pyridyl)methyl]amino-N-methyl-N-[3-(trifluoromethyl)phenyl]benzamide]
The melting point of the first is higher: 134 to 136 °C for the first, 127 to 128 °C for the second.

`O=C(Nc1ccc(Cl)cc1)c1ccccc1NCc1ncc[nH]1` [Example 40, 2-[(2-Imidazolyl)methyl]amino-N-(4chlorophenyl)benzamide] and `O=C(Nc1ccc(Cl)cc1)c1ccccc1NCc1ccnc2ccccc12` [Example 39, 2-[(4-Quinolinyl)methyl]amino-N-(4chlorophenyl)benzamide] cannot be ordered by melting point: 181 to 184 °C for the first, 178 to 209 °C for the second.

From patent US7002022B2, “N-Aryl (thio) anthranilic acid amide derivatives, their preparation and their use as VEGF” (Novartis AG, priority 1998, dated 2006)
